Experimental data as given in paper PMC10584882 (Communications Biology, 2023).
Values joined by “and” are separate entries in the source; they are usually repeats but may differ in a detail not shown here. Identical values can stand only once.

Assays:
SARS-CoV-2 [1] = assay: Cytopathic effect inhibition assay in VERO-CCL81 cells; type: cell-based; settings: VERO CCL81, two experiments
SARS-CoV-2 [2] = assay: Viral loading determination via RT-qPCR in VERO-CCL81 cells; type: cell-based; settings: for Viral titer (% control): VERO CCL81, RT-qPCR, experiments 1 and 2
human CatV = molecular target: T1, human CatV (Homo sapiens, UniProt O60911); assay: Cathepsin inhibition test, CatV; type: biochemical; settings: Fig. S3 panel c, single replicates
T1 construct: made in house
T1 sequence (O60911 114-334): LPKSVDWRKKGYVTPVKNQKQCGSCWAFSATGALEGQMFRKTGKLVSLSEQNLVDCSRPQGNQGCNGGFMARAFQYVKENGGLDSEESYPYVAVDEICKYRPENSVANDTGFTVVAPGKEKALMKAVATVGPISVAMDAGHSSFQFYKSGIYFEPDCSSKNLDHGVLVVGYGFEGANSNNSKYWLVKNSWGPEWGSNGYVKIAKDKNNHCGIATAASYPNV

SARS-CoV-2 M^pro = molecular target: T2, SARS-CoV-2 M^pro (Severe acute respiratory syndrome coronavirus 2, UniProt P0DTD1); type: biochemical
T2 construct: Initially reported to target the viral main protease (M^pro); made in house
Method: In the enzyme inhibition assays, the initial velocities were calculated from the initial linear portions of their curves, assuming steady-state kinetics. IC50 and Ki values were calculated using GraphPad Prism software. Z-FR-AMC (CatK and CatV), Z-RR-AMC (CatB and CatL), and QS1 or Acetyl-VKLQ-AMC (M^pro) substrates were used to monitor reactions. These measurements were done in four independent duplicates or triplicates, respectively.

human CatK = molecular target: T3, human CatK (Homo sapiens, UniProt P43235); assay: Cathepsin inhibition test, CatK; type: biochemical
T3 construct: made in house
T3 sequence (P43235 115-329): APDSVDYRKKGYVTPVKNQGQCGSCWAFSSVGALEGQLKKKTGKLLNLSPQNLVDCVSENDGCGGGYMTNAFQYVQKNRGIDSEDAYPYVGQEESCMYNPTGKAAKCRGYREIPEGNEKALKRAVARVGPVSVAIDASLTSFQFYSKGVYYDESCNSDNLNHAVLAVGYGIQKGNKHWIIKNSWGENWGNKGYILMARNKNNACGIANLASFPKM

CCCC[C@@H](C=O)NC(=O)[C@H](CC(C)C)NC(=O)OCc1ccccc1 [Calpeptin, reference compound]
CPE inhibition (%) (SARS-CoV-2 [1]; 1.25 μM): 49.13%
CPE inhibition (%) (SARS-CoV-2 [1]; 2.5 μM): 33.89%
CPE inhibition (%) (SARS-CoV-2 [1]; 5 μM): 61.52%
CPE inhibition (%) (SARS-CoV-2 [1]; 10 μM): 53.9%
EC50 (SARS-CoV-2 [2]; Severe acute respiratory syndrome coronavirus 2, VERO-CCL81, RT-qPCR, 48 h post-infection, read-out: Viral titer EC50): 990 nM
Viral titer (% control) (SARS-CoV-2 [2]; 0.0781 μM): 100 % control
Viral titer (% control) (SARS-CoV-2 [2]; 0.1563 μM): 100 % control
Viral titer (% control) (SARS-CoV-2 [2]; 0.3125 μM): 100 % control and 79.17 % control
Viral titer (% control) (SARS-CoV-2 [2]; 0.625 μM): 59.82 % control and 89.92 % control
Viral titer (% control) (SARS-CoV-2 [2]; 1.25 μM): 52.69 % control and 49.08 % control
Viral titer (% control) (SARS-CoV-2 [2]; 2.5 μM): 27.29 % control and 39.96 % control
Viral titer (% control) (SARS-CoV-2 [2]; 5 μM): 41.34 % control and 28.43 % control
Viral titer (% control) (SARS-CoV-2 [2]; 10 μM): 15.97 % control and 10.75 % control
Residual activity (Vi/V0) (human CatV; inhibitor 0.010 nM, 10 pM): 0.7492 and 0.8662 and 0.9665 and 0.9783 and 1.034 and 0.8959 and 1.049 and 1.043
Residual activity (Vi/V0) (human CatV; inhibitor 0.018 nM, 18 pM): 1.426 and 1.071 and 0.8111 and 0.946 and 1.016 and 0.7983 and 1.052 and 1.107
Residual activity (Vi/V0) (human CatV; inhibitor 0.032 nM, 32 pM): 0.6155 and 0.7103 and 0.8989 and 0.8852 and 0.9741 and 0.7786 and 1.073 and 1.106
Residual activity (Vi/V0) (human CatV; inhibitor 0.058 nM, 58 pM): 0.4678 and 0.5573 and 0.8821 and 0.907 and 0.9499 and 0.7317 and 1.135 and 1.04
Residual activity (Vi/V0) (human CatV; inhibitor 0.105 nM, 0.000105 µM): 0.3395 and 0.4697 and 0.9391 and 1.0131 and 0.8776 and 0.5515 and 1.047 and 0.9299
Residual activity (Vi/V0) (human CatV; inhibitor 0.189 nM, 0.000189 µM): 0.2218 and 0.3638 and 0.7852 and 0.7629 and 0.7844 and 0.3361 and 0.9055 and 0.7253
Residual activity (Vi/V0) (human CatV; inhibitor 0.340 nM, 0.00034 µM): 0.127 and 0.1861 and 0.5926 and 0.6199 and 0.6546 and 0.1805 and 0.6841 and 0.4951
Residual activity (Vi/V0) (human CatV; inhibitor 0.612 nM, 0.000612 µM): 0.08315 and 0.0899 and 0.6171 and 0.6648 and 0.6032 and 0.1116 and 0.3127 and 0.292
Residual activity (Vi/V0) (human CatV; inhibitor 1.103 nM, 0.001103 µM): 0.07258 and 0.065 and 0.4015 and 0.4879 and 0.4441 and 0.08067 and 0.1763 and 0.1568
Residual activity (Vi/V0) (human CatV; inhibitor 1.985 nM, 0.001985 µM): 0.02995 and 0.03856 and 0.2299 and 0.2925 and 0.2801 and 0.03165 and 0.06168 and 0.07508
Residual activity (Vi/V0) (human CatV; inhibitor 3.572 nM, 0.003572 µM): 0.007933 and 0.009299 and 0.124 and 0.1265 and 0.09125 and 0.0154 and 0.02738 and 0.02841
Residual activity (Vi/V0) (human CatV; inhibitor 6.430 nM, 0.00643 µM): 0.0062 and 0.004492 and 0.03048 and 0.04147 and 0.02591 and 0.007404 and 0.008251 and 0.01699
Residual activity (Vi/V0) (human CatV; inhibitor 11.547 nM, 0.011547 µM): 0.001379 and -0.0006257 and 0.001045 and 0.01451
range of M^pro inhibition (in words) (SARS-CoV-2 M^pro): micromolar range
Residual activity (Vi/V0) (human CatK; Fig. S3 panel a, inhibitor 0.010 nM, single replicates, 10 pM): 0.8228 and 0.7849 and 0.8924
remaining activity at 10 pM (human CatK; Fig. S3 panel a, inhibitor 0.010 nM, single replicates, read-out: Residual activity (Vi/V0)): 79.2%
Residual activity (Vi/V0) (human CatK; Fig. S3 panel a, inhibitor 0.018 nM, single replicates, 18 pM): 0.692 and 0.7935 and 0.8793 and 0.9792
Residual activity (Vi/V0) (human CatK; Fig. S3 panel a, inhibitor 0.032 nM, single replicates, 32 pM): 0.6266 and 0.7672 and 0.8012 and 0.8701
Residual activity (Vi/V0) (human CatK; Fig. S3 panel a, inhibitor 0.058 nM, single replicates, 58 pM): 0.6214 and 0.5994 and 0.7911 and 0.9302
Residual activity (Vi/V0) (human CatK; Fig. S3 panel a, inhibitor 0.105 nM, single replicates, 0.000105 µM): 0.4801 and 0.5677 and 0.7764
Residual activity (Vi/V0) (human CatK; Fig. S3 panel a, inhibitor 0.189 nM, single replicates, 0.000189 µM): 0.4602 and 0.558 and 0.5219 and 0.7569
Residual activity (Vi/V0) (human CatK; Fig. S3 panel a, inhibitor 0.340 nM, single replicates, 0.00034 µM): 0.3878 and 0.4931 and 0.523
remaining activity at 0.00034 µM (human CatK; Fig. S3 panel a, inhibitor 0.340 nM, single replicates, read-out: Residual activity (Vi/V0)): 34.5%
Residual activity (Vi/V0) (human CatK; Fig. S3 panel a, inhibitor 0.612 nM, single replicates, 0.000612 µM): 0.4226 and 0.3636 and 0.4242
remaining activity at 0.000612 µM (human CatK; Fig. S3 panel a, inhibitor 0.612 nM, single replicates, read-out: Residual activity (Vi/V0)): 40.6%
Residual activity (Vi/V0) (human CatK; Fig. S3 panel a, inhibitor 1.103 nM, single replicates, 0.001103 µM): 0.2715 and 0.287 and 0.3208
remaining activity at 0.001103 µM (human CatK; Fig. S3 panel a, inhibitor 1.103 nM, single replicates, read-out: Residual activity (Vi/V0)): 28.1%
Residual activity (Vi/V0) (human CatK; Fig. S3 panel a, inhibitor 1.985 nM, single replicates, 0.001985 µM): 0.3296 and 0.262 and 0.2126
remaining activity at 0.001985 µM (human CatK; Fig. S3 panel a, inhibitor 1.985 nM, single replicates, read-out: Residual activity (Vi/V0)): 22.7%
Residual activity (Vi/V0) (human CatK; Fig. S3 panel a, inhibitor 3.572 nM, single replicates, 0.003572 µM): 0.1196 and 0.134 and 0.13
remaining activity at 0.003572 µM (human CatK; Fig. S3 panel a, inhibitor 3.572 nM, single replicates, read-out: Residual activity (Vi/V0)): 12.2%
Residual activity (Vi/V0) (human CatK; Fig. S3 panel a, inhibitor 6.430 nM, single replicates, 0.00643 µM): 0.07914 and 0.03985 and 0.09073 and 0.08937
Residual activity (Vi/V0) (human CatK; Fig. S3 panel a, inhibitor 11.547 nM, single replicates, 0.011547 µM): 0.02749 and 0.03914 and 0.04269
remaining activity at 0.011547 µM (human CatK; Fig. S3 panel a, inhibitor 11.547 nM, single replicates, read-out: Residual activity (Vi/V0)): 3.75%
Residual activity (Vi/V0) (human CatK; Fig. S3 panel a, inhibitor 20.833 nM, single replicates, 0.020833 µM): 0.006913 and 0.01907 and 0.01563
Residual activity (Vi/V0) (human CatK; Fig. S3 panel a, inhibitor 37.500 nM, single replicates, 0.0375 µM): -0.03871 and -0.04863 and 0.01233 and 0.01242
Ki (human CatK; mean with standard deviation and 95% confidence interval, pH 5.5, 37 °C): 0.061 nM
